# Reference: patent US20230127839A1, “COMPOUNDS AND COMPOSITIONS FOR TREATING CONDITIONS ASSOCIATED WITH STING ACTIVITY” (IFM Due, Inc., priority 2019, published 2023)
# Target: T1, hSTING (Homo sapiens, UniProt Q86WV6, G230A/H232R/R293Q/R71H)
# T1 construct: host or cells: THP1-Dual KO-IFNAR2 cells
# Assay: STING reporter assay (luciferase) in THP1-Dual KO-IFNAR2 cells stimulated with 2'3'cGAMP
# Assay type: cell-based
# Details: 2'3'cGAMP 15 μM, 24 h, luciferase reporter activity
# Outline: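 THP1-Dual KO-IFNAR2 cells (2×10E6 cells/mL) exposed to compounds at 0.0017-100 μM final, then stimulated with 2′3′cGAMP (15 μM final) delivered by Lipofectamine 2000 transfection. After 24 h at 37° C, secreted luciferase in supernatant read by QUANTI-Luc luminescence; EC50 calculated.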
# T1 sequence (Q86WV6 whole entry R71H/G230A/H232R/R293Q): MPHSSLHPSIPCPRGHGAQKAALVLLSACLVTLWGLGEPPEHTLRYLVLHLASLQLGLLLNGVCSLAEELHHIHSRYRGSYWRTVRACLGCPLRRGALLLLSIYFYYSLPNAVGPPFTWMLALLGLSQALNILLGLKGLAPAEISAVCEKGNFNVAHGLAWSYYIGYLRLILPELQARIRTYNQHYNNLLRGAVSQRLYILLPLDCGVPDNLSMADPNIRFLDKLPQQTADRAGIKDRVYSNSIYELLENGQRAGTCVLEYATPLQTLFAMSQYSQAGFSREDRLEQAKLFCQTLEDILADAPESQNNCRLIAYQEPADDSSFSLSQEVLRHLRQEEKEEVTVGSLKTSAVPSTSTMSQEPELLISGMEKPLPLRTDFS
row,SMILES,EC50 [nM]
1,"O=C(Nc1cnc(C2CC(F)(F)C2)c(Cl)c1)Nc1c[nH]c2ccc(F)cc12 [Compound 277, 1-(5-chloro-6-(3,3-difluorocyclobutyl)pyridin-3-yl)-3-(5-fluoro-1H-indol-3-yl)urea]",40 to 200
2,"O=C(Nc1cnc(N2CCN(CCC(F)(F)F)CC2)c(Cl)c1)Nc1c[nH]c2ccc(F)cc12 [Compound 245, 1-(5-chloro-6-(4-(3,3,3-trifluoropropyl)piperazin-1-yl)pyridin-3-yl)-3-(5-fluoro-1H-indol-3-yl)urea]",40 to 200
3,"Cc1cc(NC(=O)Nc2c[nH]c3ccc(CCO)cc23)cnc1N1CCC(F)(F)CC1 [Compound 164, 1-(6-(4,4-difluoropiperidin-1-yl)-5-methylpyridin-3-yl)-3-(5-(2-hydroxyethyl)-1H-indol-3-yl)urea]",1000 to 5000
4,"Cc1cc(NC(=O)Nc2c[nH]c3ccc(Cl)cc23)cnc1C1CCC(F)(F)CC1 [Compound 156, 1-(5-chloro-1H-indol-3-yl)-3-(6-(4,4-difluorocyclohexyl)-5-methylpyridin-3-yl)urea]",40 to 200
5,"COCCO[C@@H]1CCN(c2ncc(NC(=O)Nc3c[nH]c4cc(F)c(F)cc34)cc2C)C1 [Compound 152, (R)-1-(5,6-difluoro-1H-indol-3-yl)-3-(6-(3-(2-methoxyethoxy)pyrrolidin-1-yl)-5-methylpyridin-3-yl)urea]",1000 to 5000
6,"O=C(Nc1cnc(N2CC3(CN(CC(F)(F)F)C3)C2)c(F)c1)Nc1c[nH]c2ccc(Cl)cc12 [Compound 249, 1-(5-chloro-1H-indol-3-yl)-3-(5-fluoro-6-(6-(2,2,2-trifluoroethyl)-2,6-diazaspiro[3.3]heptan-2-yl)pyridin-3-yl)urea]",200 to 1000
7,"O=C(Nc1ccn(C2CCC(F)(F)CC2)n1)Nc1c[nH]c2ccc(F)cc12 [Compound 211, 1-(1-(4,4-difluorocyclohexyl)-1H-pyrazol-3-yl)-3-(5-fluoro-1H-indol-3-yl)urea]",1000 to 5000
8,"COCCN1CCN(c2ncc(NC(=O)Nc3c[nH]c4cc(F)c(F)cc34)cc2C)CC1 [Compound 123, 1-(5,6-difluoro-1H-indol-3-yl)-3-(6-(4-(2-methoxyethyl)piperazin-1-yl)-5-methylpyridin-3-yl)urea]",5000 to 100000
9,"O=C(Nc1cnc(N2CCC3(CCCCO3)CC2)c(Cl)c1)Nc1c[nH]c2cc(F)c(F)cc12 [Compound 176, 1-(5-chloro-6-(1-oxa-9-azaspiro[5.5]undecan-9-yl)pyridin-3-yl)-3-(5,6-difluoro-1H-indol-3-yl)urea]",200 to 1000
10,"O=C(Nc1cnc(C2CCC(F)(F)CC2)c(Cl)c1)Nc1c[nH]c2cc(F)ccc12 [Compound 141, 1-(5-chloro-6-(4,4-difluorocyclohexyl)pyridin-3-yl)-3-(6-fluoro-1H-indol-3-yl)urea]",200 to 1000
11,"Cc1ccc2[nH]cc(NC(=O)Nc3cnc(N4CCC(F)(F)CC4)c(C)c3)c2c1 [Compound 197, 1-(6-(4,4-difluoropiperidin-1-yl)-5-methylpyridin-3-yl)-3-(5-methyl-1H-indol-3-yl)urea]",40 to 200
12,"COCCN(C(=O)Nc1c[nH]c2ccc(Cl)cc12)c1cnc(C2CCC(F)(F)CC2)c(Cl)c1 [Compound 228, 3-(5-chloro-1H-indol-3-yl)-1-(5-chloro-6-(4,4-difluorocyclohexyl)pyridin-3-yl)-1-(2-methoxyethyl)urea]",200 to 1000
13,"N#Cc1cc(NC(=O)Nc2c[nH]c3ccc(Cl)cc23)cnc1C1CC(F)(F)C1 [Compound 257, 1-(5-chloro-1H-indol-3-yl)-3-(5-cyano-6-(3,3-difluorocyclobutyl)pyridin-3-yl)urea]",40 to 200
14,"O=C(Nc1cnc(C2CCC(F)(F)CC2)c(Cl)c1)Nc1c[nH]c2c(Br)cc(Cl)cc12 [Compound 247, 1-(7-bromo-5-chloro-1H-indol-3-yl)-3-(5-chloro-6-(4,4-difluorocyclohexyl)pyridin-3-yl)urea]",200 to 1000
15,"O=C(Nc1cnc(N2CCC3(CC2)CC3)c(Cl)c1)Nc1c[nH]c2ccc(F)cc12 [Compound 239, 1-(5-chloro-6-(6-azaspiro[2.5]octan-6-yl)pyridin-3-yl)-3-(5-fluoro-1H-indol-3-yl)urea]",40 to 200
